Assays:
Type in all cases: cell-based
HepG2 liver cells [1] = test: Insulin- and glucose-stimulated glycogen synthase activity in stable tissue culture cells; settings: insulin and glucose added, in the presence of the inhibitor
Text: (§1) In these assays measurement of the effectiveness of a given inhibitor is accomplished by the effect of inhibitors on glycogen synthase activity as described in Thomas et al, Anal. Biochem. 25:486-99 (1968), glucose uptake as described in Begun and Ragolia Endocrinology 137: 2441-6 (1996), Claraldi et al, J. Clin. Invest. 96:2820-27 (1995), Hara et al, PNAS 91:7415-19 (1994), Robinson and James, Am. J. Physiol. 263:E383-93(1992), and Sasoaka et al, JBC 270: 10885-92 (1995) and glucose incorporation into glycogen as described in Begun and Ragolia Endocrinology 137: 2441-6 (1996), Sasoaka et al, JBC 270: 10885-92 (1995), and Takata et al, JBC 267:9065-70 (1992).
(§2) Assays for glucose uptake and glycogen synthesis can be conducted as described for cell-based assays generally. To measure glucose uptake and glycogen synthesis, a variety of stable tissue culture cell lines that respond to insulin stimulation by increasing the synthesis of glycogen and increasing the rate of glucose uptake from the medium can be used. These include HepG2 liver cells, CHO-IR cells, and Hirc cells. Under appropriate conditions the addition of insulin and glucose to HepG2 cells stimulates glycogen synthase activity and this stimulation is potentiated in the presence of the GSK3 inhibitor iodotubercidin.

HepG2 liver cells [2] = test: Glucose uptake in stable tissue culture cells
Text: as §1, §2

Drosophila cells = test: β-catenin stabilization assay of intracellular GSK3 activity (western blot); settings: added to Drosophila cells; detected on a western blot
Text: Other assays that test functional GSK3 also provide a further test of intracellular GSK3 activity. These assays rely on the ability to observe indirect consequences of GSK3 activity within cells. An example of such an assay involves β-catenin stabilization. Cellular GSK3 activity leads to the destabilization of cytosolic pools of β-catenin in certain types of cell. Consequently, inhibition of GSK3 results in β-catenin stabilization and accumulation, which can be detected on a western blot. […] Similarly, LiCl in the cell culture medium causes an increase in intracellular β-catenin levels as described in Stambolic et al, Cur. Biol. 6(12):1664-8 (1996).

## Nc1ncnc2c1c(I)cn2[C@@H]1O[C@H](CO)[C@@H](O)[C@H]1O [iodotubercidin]
HepG2 liver cells [1]
  stimulation of glycogen synthase activity by insulin and glucose: potentiated
HepG2 liver cells [2]
  response of glucose uptake to insulin, glucose and inhibitor: as much as six fold
Drosophila cells
  β-catenin accumulation: leads to β-catenin accumulation

From patent US6057117A, “Identification and use of selective inhibitors of glycogen synthase kinase 3” (Chiron Corporation, priority 1999, dated 2000)
